The values below are quoted from earlier work in patent publication US20260345619A1 (Principia Biopharma Inc., priority 2023, published 2026).

Read-outs that look alike come from different tables or passages of the source.

Data set [1] has as its system 251 kinases sharing a common cysteine in their active site. Particulars: 1 μM; panel of 251 kinases; cited from earlier work.
For data set [2] the following is noted: cited from earlier work.

On to `C=CC(=O)N1CCC[C@@H](n2nc(-c3ccc(Oc4ccccc4)cc3)c3c(N)ncnc32)C1` [ibrutinib, reference compound], for which the “number of kinases inhibited (>90% inhibition)” value in data set [1] is given as 21 kinases.
Consider benralizumab: anti-IL5 receptor, for which, in data set [2] (severe asthma, eosinophilic phenotype), the efficacy result was “have shown efficacy”.
“omalizumab: anti-immunoglobulin E (IgE) agent”: the black box warning result in data set [2] (in vivo) is “black box warning of potential for anaphylaxis”. The efficacy entry in data set [2] (severe, corticosteroid-refractory allergy-induced asthma) is listed as “has shown efficacy”.
